Like-named read-outs stand apart in the source and are kept apart here.
Tested on: androgen receptor (AR) in LNCaP and/or VCaP cells
Assay: Androgen Receptor ELISA assay (AR degradation)
Assay type: cell-based
Outline: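 VCaP cells grown ≥3 days, then treated 5 h with compound in media containing 1 nM R1881 (10× stock). Cells lysed and AR quantified by sandwich ELISA (mouse AR detection Ab, HRP anti-mouse, TMB). DC50 and Dmax derived from AR degradation.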

[1] = degradation of AR ELISA in LNCaP and/or VCaP cells, Table 2C, read-out: DC50 Code*
[2] = LNCaP and/or VCaP cells, 5 hours incubation, media with R1881, read-out: DC50 Code* (degradation of AR ELISA)

SMILES | DC50 [1] | further results
COCCN(CC1CCN(c2ccc(C(=O)N[C@H]3C(C)(C)[C@H](Oc4cc(C)c(C#N)c(C)c4)C3(C)C)nn2)CC1)[C@H]1C[C@H](Oc2ccc3c(c2)C(=O)N(C2CCC(=O)NC2=O)C3=O)C1 (some centres unmarked) [compound 121, N-((1r,3r)-3-(4-cyano-3,5-dimethylphenoxy)-2,2,4,4-tetramethylcyclobutyl)-6-(4-((((1r,3r)-3-((2-(2,6-dioxopiperidin-3-yl)-1,3-dioxoisoindolin-5-yl)oxy)cyclobutyl)(2-methoxyethyl)amino)methyl)piperidin-1-yl)pyridazine-3-carboxamide] | < 1 nM | –
COc1cc(O[C@H]2C(C)(C)[C@H](NC(=O)c3cnc(N4CCC(CN(C(C)C)[C@H]5C[C@H](Oc6cc(OC)c7c(c6)C(=O)N(C6CCC(=O)NC6=O)C7=O)C5)CC4)cn3)C2(C)C)ccc1C#N (some centres unmarked) [compound 98, N-((1r,3r)-3-(4-cyano-3-methoxyphenoxy)-2,2,4,4-tetramethylcyclobutyl)-5-(4-((((1r,3r)-3-((2-(2,6-dioxopiperidin-3-yl)-7-methoxy-1,3-dioxoisoindolin-5-yl)oxy)cyclobutyl) (isopropyl)amino)methyl)piperidin-1-yl)pyrazine-2-carboxamide] | < 1 nM | –
CC(C)N(CC1CCN(c2ncc(C(=O)NC3CCC(Oc4ccc(C#N)c(Cl)c4)CC3)cn2)CC1)C1CCC(Oc2ccc3c(c2)C(=O)N(C2CCC(=O)NC2=O)C3=O)CC1 (centres unmarked) [Compound 59, N-((1r,4r)-4-(3-chloro-4-cyanophenoxy)cyclohexyl)-2-(4-((((1r,4r)-4-((2-(2,6-dioxopiperidin-3-yl)-1,3-dioxoisoindolin-5-yl)oxy)cyclohexyl) (isopropyl)amino)methyl)piperidin-1-yl)pyrimidine-5-carboxamide] | – | DC50 [2]: < 1 nM
CC(C)Oc1cc(N2CCN(CC3CCN(c4ccc(C(=O)N[C@H]5CC[C@H](Oc6ccc(C#N)c(Cl)c6)CC5)nn4)CC3)CC2)cc2c1C(=O)N(C1CCC(=O)NC1=O)C2=O (some centres unmarked) [Compound 40, N-((1r,4r)-4-(3-chloro-4-cyanophenoxy)cyclohexyl)-6-(4-((4-(2-(2,6-dioxopiperidin-3-yl)-7-isopropoxy-1,3-dioxoisoindolin-5-yl)piperazin-1-yl)methyl)piperidin-1-yl)pyridazine-3-carboxamide] | – | DC50 [2]: < 1 nM
Cc1cc(O[C@H]2C(C)(C)[C@H](NC(=O)c3cnc(N4CCC(CN(C(C)C)[C@H]5C[C@H](Oc6ccc7c(c6)CN(C6CCC(=O)NC6=O)C7=O)C5)CC4)cn3)C2(C)C)cc(C)c1C#N (mixture of isomers) [compound 126, rac-N-((1r,3r)-3-(4-cyano-3,5-dimethylphenoxy)-2,2,4,4-tetramethylcyclobutyl)-5-(4-((((1r,3r)-3-((2-(2,6-dioxopiperidin-3-yl)-1-oxoisoindolin-5-yl)oxy)cyclobutyl) (isopropyl)amino)methyl)piperidin-1-yl)pyrazine-2-carboxamide] | > 100 nM | –
CCN(CC1CCN(c2ccc(C(=O)N[C@H]3C(C)(C)[C@H](Oc4cc(C)c(C#N)c(C)c4)C3(C)C)cc2)CC1)[C@H]1C[C@H](Oc2ccc3c(c2)C(=O)N(C2CCC(=O)NC2=O)C3=O)C1 (some centres unmarked) [compound 168, N-((1r,3r)-3-(4-cyano-3,5-dimethylphenoxy)-2,2,4,4-tetramethylcyclobutyl)-4-(4-((((1r,3r)-3-((2-(2,6-dioxopiperidin-3-yl)-1,3-dioxoisoindolin-5-yl)oxy)cyclobutyl) (ethyl)amino)methyl)piperidin-1-yl) benzamide] | < 1 nM | –
COCCN(CC1CCN(c2nc(C)c(C(=O)N[C@H]3C(C)(C)[C@H](Oc4ccc(C#N)c(OC)c4)C3(C)C)c(C)n2)CC1)[C@H]1C[C@H](Oc2ccc3c(c2)C(=O)N(C2CCC(=O)NC2=O)C3=O)C1 (mixture of isomers) [compound 240, rac-N-((1r,3r)-3-(4-cyano-3-methoxyphenoxy)-2,2,4,4-tetramethylcyclobutyl)-2-(4-((((1r,3r)-3-((2-(2,6-dioxopiperidin-3-yl)-1,3-dioxoisoindolin-5-yl)oxy)cyclobutyl)(2-methoxyethyl)amino)methyl)piperidin-1-yl)-4,6-dimethylpyrimidine-5-carboxamide] | – | DC50 (degradation of AR ELISA in LNCaP and/or VCaP cells, read-out: DC50 Code*): 1 to 10 nM
Cc1cc(O[C@H]2C(C)(C)[C@H](NC(=O)c3ccc(N4CCC(CN5CCOC[C@@H]5CCOc5ccc6c(c5)C(=O)N(C5CCC(=O)NC5=O)C6=O)CC4)cc3)C2(C)C)cc(C)c1C#N (stereo partly drawn) [compound 174, N-((1r,3S)-3-(4-cyano-3,5-dimethylphenoxy)-2,2,4,4-tetramethylcyclobutyl)-4-(4-(((3S)-3-(2-((2-(2,6-dioxopiperidin-3-yl)-1,3-dioxoisoindolin-5-yl)oxy)ethyl)morpholino)methyl)piperidin-1-yl)benzamide] | < 1 nM | –
CC1(C)[C@H](NC(=O)c2ccc(N3CCC(CN4CC5CN(c6ccc7c(c6)C(=O)N(C6CCC(=O)NC6=O)C7=O)CC5C4)CC3)cc2)C(C)(C)[C@H]1Oc1ccc(C#N)c(Cl)c1 (some centres unmarked) [compound 114, N-((1r,3r)-3-(3-chloro-4-cyanophenoxy)-2,2,4,4-tetramethylcyclobutyl)-4-(4-((5-(2-(2,6-dioxopiperidin-3-yl)-1,3-dioxoisoindolin-5-yl)hexahydropyrrolo[3,4-c]pyrrol-2(1H)-yl)methyl)piperidin-1-yl)benzamide] | < 1 nM | –

Further lines, with some results ahead:

DC50 [1] | SMILES | further results
< 1 nM | COc1cc(O[C@H]2C[C@H](N(CCN3CCOCC3)CC3CCN(c4ccc(C(=O)N[C@H]5C(C)(C)[C@H](Oc6cc(C)c(C#N)c(C)c6)C5(C)C)cc4)CC3)C2)cc2c1C(=O)N(C1CCC(=O)NC1=O)C2=O (some centres unmarked) [compound 180, N-((1r,3r)-3-(4-cyano-3,5-dimethylphenoxy)-2,2,4,4-tetramethylcyclobutyl)-4-(4-((((1r,3r)-3-((2-(2,6-dioxopiperidin-3-yl)-7-methoxy-1,3-dioxoisoindolin-5-yl)oxy)cyclobutyl)(2-morpholinoethyl)amino)methyl)piperidin-1-yl)benzamide] | –
1 to 10 nM | CC1(C)[C@H](NC(=O)c2cnc(N3CCC(CN(CCN4CCOCC4)[C@H]4C[C@H](Oc5ccc6c(c5)C(=O)N(C5CCC(=O)NC5=O)C6=O)C4)CC3)cn2)C(C)(C)[C@H]1Oc1ccc(C#N)c(Cl)c1 (some centres unmarked) [compound 237, N-((1r,3r)-3-(3-chloro-4-cyanophenoxy)-2,2,4,4-tetramethylcyclobutyl)-5-(4-((((1r,3r)-3-((2-(2,6-dioxopiperidin-3-yl)-1,3-dioxoisoindolin-5-yl)oxy)cyclobutyl)(2-morpholinoethyl)amino)methyl)piperidin-1-yl)pyrazine-2-carboxamide] | –
< 1 nM | CCN(CC1CCN(c2cnc(C(=O)N[C@H]3C(C)(C)[C@H](Oc4ccc(C#N)c(OC)c4)C3(C)C)cn2)CC1)[C@H]1C[C@H](Oc2ccc3c(c2)C(=O)N(C2CCC(=O)NC2=O)C3=O)C1 (some centres unmarked) [compound 194, N-((1r,3r)-3-(4-cyano-3-methoxyphenoxy)-2,2,4,4-tetramethylcyclobutyl)-5-(4-((((1r,3r)-3-((2-(2,6-dioxopiperidin-3-yl)-1,3-dioxoisoindolin-5-yl)oxy)cyclobutyl)(ethyl)amino)methyl)piperidin-1-yl)pyrazine-2-carboxamide] | –
< 1 nM | Cc1cc(O[C@H]2C(C)(C)[C@H](NC(=O)c3ccc(N4CCC(CN5CCC[C@@H]5COc5ccc6c(c5)C(=O)N(C5CCC(=O)NC5=O)C6=O)CC4)cc3)C2(C)C)cc(C)c1C#N (stereo partly drawn) [compound 193, N-((1r,3R)-3-(4-cyano-3,5-dimethylphenoxy)-2,2,4,4-tetramethylcyclobutyl)-4-(4-(((2R)-2-(((2-(2,6-dioxopiperidin-3-yl)-1,3-dioxoisoindolin-5-yl)oxy)methyl)pyrrolidin-1-yl)methyl)piperidin-1-yl)benzamide] | –
< 1 nM | Cc1cc(O[C@H]2C(C)(C)[C@H](NC(=O)c3ccc(N4CCC(CN5CCCC[C@@H]5COc5ccc6c(c5)C(=O)N(C5CCC(=O)NC5=O)C6=O)CC4)cc3)C2(C)C)cc(C)c1C#N (stereo partly drawn) [compound 192, N-((1r,3R)-3-(4-cyano-3,5-dimethylphenoxy)-2,2,4,4-tetramethylcyclobutyl)-4-(4-(((2R)-2-(((2-(2,6-dioxopiperidin-3-yl)-1,3-dioxoisoindolin-5-yl)oxy)methyl)piperidin-1-yl)methyl)piperidin-1-yl)benzamide] | –
< 1 nM | Cc1cc(O[C@H]2C(C)(C)[C@H](NC(=O)c3cnc(N4CCC(CN(C)[C@H]5C[C@H](Oc6ccc7c(c6)C(=O)N(C6CCC(=O)NC6=O)C7=O)C5)CC4)cn3)C2(C)C)cc(C)c1C#N (mixture of isomers) [compound 224, rac-N-((1r,3r)-3-(4-cyano-3,5-dimethylphenoxy)-2,2,4,4-tetramethylcyclobutyl)-5-(4-((((1r,3r)-3-((2-(2,6-dioxopiperidin-3-yl)-1,3-dioxoisoindolin-5-yl)oxy)cyclobutyl) (methyl)amino)methyl)piperidin-1-yl)pyrazine-2-carboxamide] | –
< 1 nM | COCCN(CC1CCN(c2ccc(C(=O)N[C@H]3C(C)(C)[C@H](Oc4ccc(C#N)c(Cl)c4)C3(C)C)cc2)CC1)[C@H]1C[C@H](Oc2ccc3c(c2)C(=O)N(C2CCC(=O)NC2=O)C3=O)C1 (some centres unmarked) [compound 184, N-((1r,3r)-3-(3-chloro-4-cyanophenoxy)-2,2,4,4-tetramethylcyclobutyl)-4-(4-((((1r,3r)-3-((2-(2,6-dioxopiperidin-3-yl)-1,3-dioxoisoindolin-5-yl)oxy)cyclobutyl)(2-methoxyethyl)amino)methyl)piperidin-1-yl)benzamide] | –
< 1 nM | COCCN(CC1CCN(c2cnc(C(=O)N[C@H]3C(C)(C)[C@H](Oc4cc(C)c(C#N)c(C)c4)C3(C)C)cn2)CC1)[C@H]1C[C@H](Oc2cc3c(cc2OC)C(=O)N(C2CCC(=O)NC2=O)C3=O)C1 (mixture of isomers) [compound 222, rac-N-((1r,3r)-3-(4-cyano-3,5-dimethylphenoxy)-2,2,4,4-tetramethylcyclobutyl)-5-(4-((((1r,3r)-3-((2-(2,6-dioxopiperidin-3-yl)-6-methoxy-1,3-dioxoisoindolin-5-yl)oxy)cyclobutyl)(2-methoxyethyl)amino)methyl)piperidin-1-yl)pyrazine-2-carboxamide] | –

— patent US20260053932A1, “COMPOUNDS AND METHODS FOR THE TARGETED DEGRADATION OF ANDROGEN RECEPTOR AND ASSOCIATED METHODS OF USE” (Arvinas Operations, Inc., priority 2020, published 2026)
